Earlier results on three molecules are cited in US20060222709A1 (AGI Therapeutics Research Ltd., priority 2005, published 2006).

SMILES strings stand for the structures.

Data set [1] deals with women patients with IBS-C. The note with it: 6 mg twice daily.
For data set [2], the system named is patients with chronic constipation. The conditions noted are these: two trials.

Consider `CCCCCNC(=N)N/N=C/c1c[nH]c2ccc(OC)cc12.O=C(O)/C=C\C(=O)O` [tegaserod, 3-(5-methoxy-1H-indol-3-ylmethylene)-N-pentylcarbazimidamide hydrogen maleate], for which the “global and individual symptoms” value in data set [1] was “effectively improves global and individual symptoms”.

Turning to `OC[C@H]1O[C@@H](O[C@@H]2[C@@H](CO)OC(O)(CO)[C@H]2O)[C@H](O)[C@@H](O)[C@H]1O` (mixture of isomers) [lactulose], the “stool frequency and consistency versus placebo” value in data set [2] is listed as “more effective than placebo”.

`CN(C)C(=N)N=C(N)N` [metformin, dimethylbiguanide]: the “acute, reversible adverse effects, mainly of gastrointestinal tract origin, patients affected” value (human, in vivo) is reported as “up to 20%”. The prevalence of diarrhea (treated diabetes patients (Bytzer 2001)) was 20%.
